# Reference: PubChem BioAssay AID1259407 (Chemical Carcinogenesis Research Information System (CCRIS), 2018)
# Calls of active or inactive are those of the source. The rule behind the calls is not given here.
# Test system: CCRIS mutagenicity, Ames/micronucleus/aberration tests
# Experiment: CCRIS mutagenicity studies
# [1] = Test System: AMES SALMONELLA TYPHIMURIUM, Strain/Indicator: TA98, Metabolic Activation: NONE, Method: PREINCUBATION
# [2] = Test System: AMES SALMONELLA TYPHIMURIUM, Strain/Indicator: TA100, Metabolic Activation: NONE, Method: PREINCUBATION
# [3] = Test System: AMES SALMONELLA TYPHIMURIUM, Strain/Indicator: TA98, Metabolic Activation: NONE, Method: STANDARD PLATE
# [4] = Test System: AMES SALMONELLA TYPHIMURIUM, Strain/Indicator: TA98, Metabolic Activation: RAT, LIVER, S-9, AROCLOR 1254, Method: STANDARD PLATE
# [5] = Test System: AMES SALMONELLA TYPHIMURIUM, Strain/Indicator: TA100, Metabolic Activation: NONE, Method: STANDARD PLATE
# [6] = Test System: AMES SALMONELLA TYPHIMURIUM, Strain/Indicator: TA100, Metabolic Activation: RAT, LIVER, S-9, AROCLOR 1254, Method: STANDARD PLATE
smiles,measurement,setting,value
[O-][n+]1cc2ncccc2cn1,mutagenic call,[1],inactive; negative
same,mutagenic call,"Test System: AMES SALMONELLA TYPHIMURIUM, Strain/Indicator: TA98, Metabolic Activation: RAT, LIVER, S-9, PCB, Method: PREINCUBATION",inactive; negative
same,mutagenic call,[2],inactive; negative
same,mutagenic call,"Test System: AMES SALMONELLA TYPHIMURIUM, Strain/Indicator: TA100, Metabolic Activation: RAT, LIVER, S-9, PCB, Method: PREINCUBATION",inactive; negative
N#CC1=Cc2cccc3cccc1c23,mutagenic call,[3],inactive; negative
same,mutagenic call,[4],inactive; negative
same,mutagenic call,[5],active; positive
same,mutagenic call,[6],active; positive
COc1ccccc1NCSC,mutagenic call,"Test System: AMES SALMONELLA TYPHIMURIUM, Strain/Indicator: TA98, Metabolic Activation: NONE, Method: SPOT TEST",inactive; negative
same,mutagenic call,"Test System: AMES SALMONELLA TYPHIMURIUM, Strain/Indicator: TA98, Metabolic Activation: RAT, LIVER, S-9, AROCLOR 1254, Method: SPOT TEST",active; positive
same,mutagenic call,"Test System: AMES SALMONELLA TYPHIMURIUM, Strain/Indicator: TA100, Metabolic Activation: NONE, Method: SPOT TEST",active; positive
same,mutagenic call,"Test System: AMES SALMONELLA TYPHIMURIUM, Strain/Indicator: TA100, Metabolic Activation: RAT, LIVER, S-9, AROCLOR 1254, Method: SPOT TEST",active; positive
same,mutagenic call,"Test System: AMES SALMONELLA TYPHIMURIUM, Strain/Indicator: TA102, Metabolic Activation: NONE, Method: SPOT TEST",inactive; negative
same,mutagenic call,"Test System: AMES SALMONELLA TYPHIMURIUM, Strain/Indicator: TA102, Metabolic Activation: RAT, LIVER, S-9, AROCLOR 1254, Method: SPOT TEST",active; positive
C=CC(=O)OCC(C)(C)COC(=O)C=C,mutagenic call,[3],inactive; negative
same,mutagenic call,[4],inactive; negative
same,mutagenic call,"Test System: AMES SALMONELLA TYPHIMURIUM, Strain/Indicator: TA98, Metabolic Activation: RAT, LIVER, S-9, SODIUM PHENOBARBITAL, Method: STANDARD PLATE",inactive; negative
same,mutagenic call,[5],inactive; negative
same,mutagenic call,[6],inactive; negative
same,mutagenic call,"Test System: AMES SALMONELLA TYPHIMURIUM, Strain/Indicator: TA100, Metabolic Activation: RAT, LIVER, S-9, SODIUM PHENOBARBITAL, Method: STANDARD PLATE",inactive; negative
same,mutagenic call,"Test System: AMES SALMONELLA TYPHIMURIUM, Strain/Indicator: TA1535, Metabolic Activation: NONE, Method: STANDARD PLATE",inactive; negative
same,mutagenic call,"Test System: AMES SALMONELLA TYPHIMURIUM, Strain/Indicator: TA1535, Metabolic Activation: RAT, LIVER, S-9, AROCLOR 1254, Method: STANDARD PLATE",inactive; negative
same,mutagenic call,"Test System: AMES SALMONELLA TYPHIMURIUM, Strain/Indicator: TA1535, Metabolic Activation: RAT, LIVER, S-9, SODIUM PHENOBARBITAL, Method: STANDARD PLATE",inactive; negative
same,mutagenic call,"Test System: AMES SALMONELLA TYPHIMURIUM, Strain/Indicator: TA1537, Metabolic Activation: NONE, Method: STANDARD PLATE",inactive; negative
same,mutagenic call,"Test System: AMES SALMONELLA TYPHIMURIUM, Strain/Indicator: TA1537, Metabolic Activation: RAT, LIVER, S-9, AROCLOR 1254, Method: STANDARD PLATE",inactive; negative
same,mutagenic call,"Test System: AMES SALMONELLA TYPHIMURIUM, Strain/Indicator: TA1537, Metabolic Activation: RAT, LIVER, S-9, SODIUM PHENOBARBITAL, Method: STANDARD PLATE",inactive; negative
same,mutagenic call,"Test System: AMES SALMONELLA TYPHIMURIUM, Strain/Indicator: TA1538, Metabolic Activation: NONE, Method: STANDARD PLATE",inactive; negative
same,mutagenic call,"Test System: AMES SALMONELLA TYPHIMURIUM, Strain/Indicator: TA1538, Metabolic Activation: RAT, LIVER, S-9, AROCLOR 1254, Method: STANDARD PLATE",inactive; negative
same,mutagenic call,"Test System: AMES SALMONELLA TYPHIMURIUM, Strain/Indicator: TA1538, Metabolic Activation: RAT, LIVER, S-9, SODIUM PHENOBARBITAL, Method: STANDARD PLATE",inactive; negative
Cc1ccc2cc(C)c3c4c(ccc3c2c1)[C@H](O)[C@@H](O)[C@H]1O[C@@H]41,mutagenic call,[5],active; positive
c1ccc2c(c1)ccc1nc3ccc4c(c3cc12)CCCC4,mutagenic call,"Test System: AMES SALMONELLA TYPHIMURIUM, Strain/Indicator: TA98, Metabolic Activation: GUINEA PIG, LIVER, S-9, 3-METHYLCHOLANTHRENE, Method: STANDARD PLATE",inactive; negative
same,mutagenic call,"Test System: AMES SALMONELLA TYPHIMURIUM, Strain/Indicator: TA100, Metabolic Activation: GUINEA PIG, LIVER, S-9, 3-METHYLCHOLANTHRENE, Method: STANDARD PLATE",active; positive
Cc1cc2ccccc2c2ccc3c(c12)[C@H]1O[C@H]1[C@@H](O)[C@H]3O,mutagenic call,[2],active; positive
c1ccc2c(c1)[nH]c1cnccc12,mutagenic call,"Test System: AMES SALMONELLA TYPHIMURIUM, Strain/Indicator: TA98, Metabolic Activation: RAT, LIVER, S-9, AROCLOR 1254, Method: PREINCUBATION",inactive; negative
O=C(O)c1cc(Cl)ccc1Cl,mutagenic call,[1],inactive; negative
same,mutagenic call,"Test System: AMES SALMONELLA TYPHIMURIUM, Strain/Indicator: TA98, Metabolic Activation: RAT LIVER S-9, PCB, Method: PREINCUBATION",inactive; negative
same,mutagenic call,[2],inactive; negative
same,mutagenic call,"Test System: AMES SALMONELLA TYPHIMURIUM, Strain/Indicator: TA100, Metabolic Activation: RAT LIVER S-9, PCB, Method: PREINCUBATION",inactive; negative
same,mutagenic call,"Test System: AMES SALMONELLA TYPHIMURIUM, Strain/Indicator: TA104, Metabolic Activation: NONE, Method: PREINCUBATION",inactive; negative
same,mutagenic call,"Test System: AMES SALMONELLA TYPHIMURIUM, Strain/Indicator: TA104, Metabolic Activation: RAT LIVER S-9, PCB, Method: PREINCUBATION",inactive; negative
same,mutagenic call,"Test System: E.COLI, Strain/Indicator: WP2 UVRA, Metabolic Activation: NONE, Method: PREINCUBATION",inactive; negative
same,mutagenic call,"Test System: E.COLI, Strain/Indicator: WP2 UVRA, Metabolic Activation: RAT LIVER S-9, PCB, Method: PREINCUBATION",inactive; negative
